Melting point and MIC data for eight molecules are collected here from patent publication US20020103377A1, “Piperidinyloxy and pyrrolidinyloxy oxazolidinone antibacterials” (priority 1999, published 2002).

Converted amounts (≈) assume the structure as drawn.

For one data set, the system named is E. faecium OC3312. The data set is described as follows: MIC by microdilution broth method (NCCLS), E. faecium OC3312. It is filed as cell-based. Conditions: Enterococcus faecium, OC3312, microdilution broth, cation adjusted Mueller-Hinton broth, 35° C., 16-20 hours; read-out: MIC (μg/mL) E. faecium OC3312. The gist of the method: (§1)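 Two-fold serial dilutions in cation-adjusted Mueller-Hinton broth, inoculum about 5×10^4 CFU/well, following NCCLS M7-A4 microdilution. Trays incubated 16-20 h at 35 °C. MIC read as growth relative to drug-free control wells.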
(In general: In broth dilution the organism is exposed to a series of concentrations in liquid medium.)

The next data set relates to S. aureus. The data set is described as follows: MIC by microdilution broth method (NCCLS), S. aureus Broth. Format: cell-based. Conditions: Staphylococcus aureus, cation adjusted Mueller-Hinton broth, 35° C., 16-20 hours, read-out: MIC (μg/mL) S. aureus Broth. The gist of the method:
as §1

Another data set relates to MRSA OC 2878. Put plainly: MIC by microdilution broth method (NCCLS), MRSA OC 2878. Format: cell-based, Staphylococcus aureus. Conditions: Staphylococcus aureus, MRSA, cation adjusted Mueller-Hinton broth, 35° C., 16-20 hours, read-out: MIC (μg/mL) MRSA OC 2878. The gist of the method:
as §1

Usually melting point stands for the temperature of the solid-liquid transition. With `CC(=O)NC[C@H]1CN(c2ccc(OC3CCN(C(=O)c4cccc(C(F)(F)F)c4)CC3)c(F)c2)C(=O)O1` [Compound 10, (S)-N-[[3-[3-Fluoro-4-{N-(3-trifluoromethylbenzoyl)piperidinyl-4-oxy}phenyl]-2-oxo-5-oxazolidinyl]methyl]acetamide], the melting point was 150 to 152 °C. For the same molecule, the MIC in the data set with E. faecium OC3312 was 32 µg/mL (≈ 61.1 µM). Besides, in the data set with S. aureus, the MIC worked out at 16 µg/mL (≈ 30.6 µM). Moreover, in the data set with MRSA OC 2878, the MIC came out at 16 µg/mL (≈ 30.6 µM).
On to `CC(=O)NC[C@H]1CN(c2ccc(OC3CCN(c4ncccn4)CC3)c(F)c2)C(=O)O1` [Compound 9, (S)-N-[[3-[3-Fluoro-4-{N-(2-pyrimidinyl)piperidinyl-4-oxy}phenyl]-2-oxo-5-oxazolidinyl]methyl]acetamide], for which the melting point was in the range of 121 to 123 °C. Also, the MIC in the data set on E. faecium OC3312 is 8 µg/mL (≈ 18.6 µM). Also, the MIC in the data set on S. aureus came out at 4 µg/mL (≈ 9.31 µM). Moreover, in the data set on MRSA OC 2878, the MIC came out at 4 µg/mL (≈ 9.31 µM).
`CC(=O)NC[C@H]1CN(c2ccc(OC3CN(C(=O)COCc4ccccc4)C3)c(F)c2)C(=O)O1` [Compound 58, (S)-N-[[3-[3-Fluoro-4-{N-(benzyloxyacetyl)azetidinyl-3-oxy}phenyl]-2-oxo-5-oxazolidinyl]methyl]acetamide] came in with a melting point of 119 to 121 °C. In the data set with E. faecium OC3312, the MIC was found to be 4 µg/mL (≈ 8.48 µM). The MIC with S. aureus is 8 µg/mL (≈ 17 µM). Further, the MIC in the data set on MRSA OC 2878 was found to be 4 µg/mL (≈ 8.48 µM).
Take `CC(=O)NC[C@H]1CN(c2ccc(OC3CCN(C(=O)c4ccco4)CC3)c(F)c2)C(=O)O1` [Compound 51, (S)-N-[[3-[3-Fluoro-4-{N-(2-furoyl)piperdinyl-4-oxy}phenyl]-2-oxo-5-oxazolidinyl]methyl]acetamide]: the melting point lay within 134 to 136 °C. Besides, the MIC in the data set on E. faecium OC3312 is 8 µg/mL (≈ 18 µM). Besides, in the data set on S. aureus, the MIC worked out at 16 µg/mL (≈ 35.9 µM). The MIC in the data set on MRSA OC 2878 amounted to 8 µg/mL (≈ 18 µM).
As for `CC(=O)NC[C@H]1CN(c2ccc(OC3CCN(c4ccc(C#N)cn4)CC3)c(F)c2)C(=O)O1` [Compound 14, (S)-N-[[3-[3-Fluoro-4-{N-(5-cyano-2-pyridyl)piperidinyl-4-oxy}phenyl]-2-oxo-5-oxazolidinyl]methyl]acetamide], the melting point is 78 to 84 °C. In the data set on E. faecium OC3312, the MIC turned out to be 8 µg/mL (≈ 17.6 µM). The MIC in the data set with S. aureus came to 4 µg/mL (≈ 8.82 µM). The MIC in the data set with MRSA OC 2878 was 4 µg/mL (≈ 8.82 µM).
In the case of `CC(=O)NC[C@H]1CN(c2ccc(OC3CCN(C(=O)N4CCOCC4)CC3)c(F)c2)C(=O)O1` [Compound 25, (S)-N-[[3-[3-Fluoro-4-{N-(4-morpholinocarbamoyl)piperidinyl-4-oxy}phenyl]-2-oxo-5-oxazolidinyl]methyl]acetamide], the melting point is 167 to 170 °C. Also, in the data set on E. faecium OC3312, the MIC came to 64 µg/mL (≈ 138 µM). Moreover, in the data set with S. aureus, the MIC was 32 µg/mL (≈ 68.9 µM). Also, in the data set with MRSA OC 2878, the MIC turned out to be 32 µg/mL (≈ 68.9 µM).
As to `CC(=O)NC[C@H]1CN(c2ccc(OC3CCN(S(C)(=O)=O)CC3)nc2)C(=O)O1` [Compound 44, (5S)-3-[6-{N-(Methanesulfonyl)piperidinyl-4-oxy}-pyridin-3-yl]-5-methylacetamide-oxazolidin-2-one], the melting point is 175 to 176 °C. Further, the MIC in the data set with E. faecium OC3312 amounted to 128 µg/mL (≈ 310 µM). Moreover, the MIC in the data set with S. aureus came to 32 µg/mL (≈ 77.6 µM). In addition, in the data set with MRSA OC 2878, the MIC came to 64 µg/mL (≈ 155 µM).
As for `CC(=O)NC[C@H]1CN(c2ccc(OC3CCCN(C(=O)OC(C)(C)C)C3)c(F)c2)C(=O)O1` (stereo partly drawn) [Compound 34, (S)-N-[[3-[3-Fluoro-4-{N-(t-butoxycarbonyl)piperidinyl-3-oxy}phenyl]-2-oxo-5-oxazolidinyl]methyl]acetamide], the melting point fell in the range of 60 to 63 °C. In the data set with E. faecium OC3312, the MIC is above 128 µg/mL. In the data set on S. aureus, the MIC was 128 µg/mL (≈ 284 µM). Also, the MIC with MRSA OC 2878 turned out to be 64 µg/mL (≈ 142 µM).
